In PMC2787625, “A Neuronal Acetylcholine Receptor Regulates the Balance of Muscle Excitation and Inhibition in Caenorhabditis elegans” (PLoS Biology, 2009) one finds EC50 data, which are given here for 1 compound.

Where two headings read alike, the source gives them in different places.

For assay [1], the system named is ACR-2R (ACR-2-containing acetylcholine receptor: UNC-38, UNC-63, ACR-12, ACR-2, ACR-3). Particulars: agonist; 1 mM external CaCl2; 500 µM and 1 mM points excluded from fit (open-channel block); n2420 gain-of-function subunit ACR-2(V13′M).
The test system is the same in assay [2]. Particulars: agonist; 1 mM external CaCl2; 500 µM and 1 mM points excluded from fit (open-channel block).

In general, EC50 refers to the concentration at which the effect is half-maximal. A lower EC50 goes with an effect from little substance. Consider `CC(=O)OCC[N+](C)(C)C` [acetylcholine], for which the EC50 in assay [1] stood at 17.8 ± 1.4 µM; in assay [2], 14.1 ± 1.2 µM.
